{"source": "patent US20260376293A1", "about": "“METHODS FOR STUDYING GPR158 PHARMACOLOGY AND IDENTIFICATION OF ITS LIGANDS” (UNIVERSITY OF FLORIDA RESEARCH FOUNDATION, INCORPORATED, priority 2022, published 2026)", "target": "T1, GPR158 (Homo sapiens, UniProt Q5T848)", "T1 construct": "expressed in transfected cells; host or cells: HEK293T/17", "T1 sequence (Q5T848 24-1215)": "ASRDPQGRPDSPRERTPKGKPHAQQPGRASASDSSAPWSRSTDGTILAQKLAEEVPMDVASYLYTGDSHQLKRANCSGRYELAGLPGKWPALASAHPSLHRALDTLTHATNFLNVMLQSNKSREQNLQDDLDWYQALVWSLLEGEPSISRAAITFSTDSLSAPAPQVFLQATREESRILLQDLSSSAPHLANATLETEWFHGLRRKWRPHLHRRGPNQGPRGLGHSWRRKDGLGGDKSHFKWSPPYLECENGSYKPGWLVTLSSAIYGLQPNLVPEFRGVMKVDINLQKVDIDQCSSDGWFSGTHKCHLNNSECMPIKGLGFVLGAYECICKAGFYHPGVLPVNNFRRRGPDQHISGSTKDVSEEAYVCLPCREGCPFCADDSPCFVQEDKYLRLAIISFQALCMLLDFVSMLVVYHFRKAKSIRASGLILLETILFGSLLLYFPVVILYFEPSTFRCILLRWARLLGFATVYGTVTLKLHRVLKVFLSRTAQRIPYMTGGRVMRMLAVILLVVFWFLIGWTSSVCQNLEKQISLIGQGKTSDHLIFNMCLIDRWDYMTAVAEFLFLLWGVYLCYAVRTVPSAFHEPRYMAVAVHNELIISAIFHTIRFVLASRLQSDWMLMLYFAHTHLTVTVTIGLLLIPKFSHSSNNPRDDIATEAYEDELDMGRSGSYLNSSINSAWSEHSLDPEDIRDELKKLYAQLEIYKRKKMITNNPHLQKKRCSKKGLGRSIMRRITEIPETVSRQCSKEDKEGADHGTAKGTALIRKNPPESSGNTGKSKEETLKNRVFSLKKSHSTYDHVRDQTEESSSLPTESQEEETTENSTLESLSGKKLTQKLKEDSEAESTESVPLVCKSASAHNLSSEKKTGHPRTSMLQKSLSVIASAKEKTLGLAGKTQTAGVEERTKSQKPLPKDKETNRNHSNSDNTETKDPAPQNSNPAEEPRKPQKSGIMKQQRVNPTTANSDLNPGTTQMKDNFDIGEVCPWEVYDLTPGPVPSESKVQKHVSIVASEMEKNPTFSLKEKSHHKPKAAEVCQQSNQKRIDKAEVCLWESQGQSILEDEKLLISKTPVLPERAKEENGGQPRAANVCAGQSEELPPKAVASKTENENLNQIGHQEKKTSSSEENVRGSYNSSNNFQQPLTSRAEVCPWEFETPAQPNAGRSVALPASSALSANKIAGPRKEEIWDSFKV", "T1 sequence (P49802 1-495 partner)": "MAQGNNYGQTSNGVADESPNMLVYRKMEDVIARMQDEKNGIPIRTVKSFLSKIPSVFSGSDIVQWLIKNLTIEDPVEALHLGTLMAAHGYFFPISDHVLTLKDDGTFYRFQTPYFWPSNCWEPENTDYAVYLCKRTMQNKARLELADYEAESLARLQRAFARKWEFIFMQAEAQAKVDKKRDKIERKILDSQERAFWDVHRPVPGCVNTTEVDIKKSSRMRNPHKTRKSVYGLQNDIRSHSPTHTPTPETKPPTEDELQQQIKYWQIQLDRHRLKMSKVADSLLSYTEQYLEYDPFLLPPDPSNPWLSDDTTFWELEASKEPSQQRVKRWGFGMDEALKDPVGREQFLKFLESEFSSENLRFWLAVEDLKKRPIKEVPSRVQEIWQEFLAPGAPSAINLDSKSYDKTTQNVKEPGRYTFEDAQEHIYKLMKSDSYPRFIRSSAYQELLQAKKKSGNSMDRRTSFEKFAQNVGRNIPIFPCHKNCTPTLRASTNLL", "T1 sequence (O14775 1-395 partner)": "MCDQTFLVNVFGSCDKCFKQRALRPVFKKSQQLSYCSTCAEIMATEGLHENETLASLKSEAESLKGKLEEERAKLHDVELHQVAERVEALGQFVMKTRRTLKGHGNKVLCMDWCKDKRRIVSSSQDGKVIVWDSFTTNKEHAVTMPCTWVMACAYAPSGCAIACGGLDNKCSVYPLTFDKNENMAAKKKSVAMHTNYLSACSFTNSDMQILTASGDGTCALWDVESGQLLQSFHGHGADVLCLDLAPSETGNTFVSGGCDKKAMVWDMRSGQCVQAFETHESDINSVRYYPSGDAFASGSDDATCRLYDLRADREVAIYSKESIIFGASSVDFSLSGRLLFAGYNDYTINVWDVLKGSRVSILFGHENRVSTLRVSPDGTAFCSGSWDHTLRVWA", "test": "HTRF cAMP Gαi assay, HEK293T/17 cells", "assay_type": "cell-based", "conditions": "forskolin; GPR158-RGS7/Gβ5, HEK293T/17", "procedure": "FIGS. 18A-18C: A. Schematic representation of HTRF Gαi CAMP assay. B. cAMP standard curve to establish assay window and dynamic range. The data shown here indicate the HTRF ratio plotted as a function of various concentrations of cAMP standards (0.17 nM to 712 nM). The curve fitting was performed using Nonlinear regression analysis in Graphpad Prism software. C. Gly treatment of GPR158-RGS7/Gβ5 expressing HEK293T/17 cells leads to depletion of cAMP levels in a concentration dependent manner. Data shown here represent the HTRF ratio normalized with respect to the buffer treated cells (control) (Mean±SEM from 1 experiment performed in triplicates).\nHEK293T/17 cells were transfected with GPR158, RGS7 and Gβ5 plasmids as mentioned above by Maxcyte electroporation. 24 hours post transfection, cells were harvested by centrifugation, counted, and seeded in a white 384 well plate at a density of 6000 cells per well after resuspending in the stimulation buffer provided with the kit. […] The HTRF signal was measured using the HTRF optic module (donor excitation: 337 nm, donor emission: 620 nm, acceptor emission 665 nm) and laser energy source in the Pherastar FSX microplate reader (BMG Labtech).\nThe data were plotted as the ratio of fluorescence emission intensities by acceptor and donor (Em 665 nm/Em 620 nm). […]"}
{"molecule": "NCC(=O)O", "note": "[glycine]", "values": [{"measurement": "HTRF signal change (cAMP decrease)", "value": "increase in HTRF signal in a Gly dose dependent fashion"}]}
